Like-named read-outs stand apart in the source and are kept apart here.
Tests used:
Type in all cases: cell-based
GLP-1R [1] = molecular target: T1, GLP-1R (Homo sapiens, UniProt P43220); assay: HitHunter cAMP assay (GLP-1R); settings: cAMP; for Emax: read-out: (Emax) GLP-1R
Procedure, shortened: (§1)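 Suspension cells (10,000/well) in HBSS with 10 mM HEPES, 625 μM IBMX, 0.2% BSA exposed to 22-point 2-fold agonist series in duplicate for 30 min at room temperature. cAMP measured by antibody immunocompetition with overnight development, luminescence read-out.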

GIP-R = molecular target: T2, GIP-R (Homo sapiens, UniProt P48546); assay: HitHunter cAMP assay (GIP-R); settings: cAMP; for Emax: read-out: (Emax) GIP-R
T2 sequence (P48546 22-466): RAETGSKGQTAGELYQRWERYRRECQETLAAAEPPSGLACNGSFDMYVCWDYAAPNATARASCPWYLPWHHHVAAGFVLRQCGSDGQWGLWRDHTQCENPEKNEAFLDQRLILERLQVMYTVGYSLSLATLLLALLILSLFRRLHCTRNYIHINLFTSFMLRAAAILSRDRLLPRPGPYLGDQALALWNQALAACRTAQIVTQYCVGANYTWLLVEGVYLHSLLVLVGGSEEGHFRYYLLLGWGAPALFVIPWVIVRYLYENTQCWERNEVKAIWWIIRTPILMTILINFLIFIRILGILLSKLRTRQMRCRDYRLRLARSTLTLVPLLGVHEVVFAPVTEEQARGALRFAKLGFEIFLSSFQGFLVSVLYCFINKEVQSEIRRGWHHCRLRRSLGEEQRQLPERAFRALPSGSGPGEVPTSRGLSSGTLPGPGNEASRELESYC
Procedure, shortened: as §1

GLP-1R [2] = molecular target: T1, GLP-1R; assay: PathHunter β-arrestin assay
Procedure, shortened: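 Cells (5,000/well) plated overnight, then exposed to a 22-point 2-fold agonist dilution series in medium with 0.2% BSA for 90 min at 37 °C, 5% CO2. PathHunter detection reagent added; after 3 h at room temperature in the dark, luminescence read.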

T1 sequence (P43220 24-463): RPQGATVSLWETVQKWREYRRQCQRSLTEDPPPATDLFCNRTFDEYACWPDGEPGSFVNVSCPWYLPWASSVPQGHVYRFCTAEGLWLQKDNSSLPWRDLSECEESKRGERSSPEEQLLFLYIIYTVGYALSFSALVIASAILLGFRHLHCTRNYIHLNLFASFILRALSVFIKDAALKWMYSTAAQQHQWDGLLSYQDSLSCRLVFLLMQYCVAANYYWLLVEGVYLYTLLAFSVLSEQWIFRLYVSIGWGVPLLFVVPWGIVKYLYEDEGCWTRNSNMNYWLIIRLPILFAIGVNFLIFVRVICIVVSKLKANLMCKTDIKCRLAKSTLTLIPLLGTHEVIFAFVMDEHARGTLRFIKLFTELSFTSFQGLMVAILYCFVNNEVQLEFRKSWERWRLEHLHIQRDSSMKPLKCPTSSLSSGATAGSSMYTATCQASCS

| SMILES | EC50 (GLP-1R [1]; EC50 GLP-1R/nM, Table 3) [nM] | EC50 (GLP-1R [1]; EC50 GLP-1R/nM, Table 3A) [nM] | Emax (GLP-1R [1]; Table 3) [%] | Emax (GLP-1R [1]; Table 3A) [%] | EC50 (GIP-R; EC50 GIP-R/nM, Table 3) [nM] | EC50 (GIP-R; EC50 GIP-R/nM, Table 3A) [nM] | Emax (GIP-R; Table 3) [%] | Emax (GIP-R; Table 3A) [%] | EC50 (GLP-1R [2]) [nM] | EC50 (GLP-1R [1]; read-out: EC50 GLP-1R/nM, Table 3) [nM] | EC50 (GLP-1R [1]; read-out: EC50 GLP-1R/nM, Table 3A) [nM] | EC50 (GIP-R; read-out: EC50 GIP-R/nM, Table 3) [nM] | EC50 (GIP-R; read-out: EC50 GIP-R/nM, Table 3A) [nM] | EC50 (GLP-1R [1]; Table 3, read-out: EC50 GLP-1R/nM) [nM] | EC50 (GLP-1R [1]; Table 3A, read-out: EC50 GLP-1R/nM) [nM] | EC50 (GIP-R; Table 3, read-out: EC50 GIP-R/nM) [nM] | EC50 (GIP-R; Table 3A, read-out: EC50 GIP-R/nM) [nM] | EC50 (GLP-1R [2]; PathHunter β-arrestin assay, read-out: β-arrestin activity EC50) [nM] |
| --- | --- | --- | --- | --- | --- | --- | --- | --- | --- | --- | --- | --- | --- | --- | --- | --- | --- | --- |
| CC[C@H](C)[C@H](NC(=O)[C@H](CO)NC(=O)[C@H](Cc1ccc(O)cc1)NC(=O)[C@H](CC(=O)O)NC(=O)[C@H](CO)NC(=O)[C@@H](NC(=O)[C@H](Cc1ccccc1)NC(=O)[C@@H](NC(=O)CNC(=O)[C@H](CCC(=O)O)NC(=O)CSCC(=O)NCCN1C(=O)c2ccc(C)cc2C1=O)[C@@H](C)O)[C@@H](C)O)C(=O)N[C@@H](Cc1ccc(O)cc1)C(=O)N[C@@H](CC(C)C)C(=O)N[C@@H](CC(=O)O)C(=O)N[C@@H](CCCCN)C(=O)N[C@@H](CCC(N)=O)C(=O)N[C@@H](C)C(=O)N[C@@H](C)C(=O)NC(C)(C)C(=O)N[C@@H](CCC(=O)O)C(=O)N[C@@H](Cc1ccccc1)C(=O)N[C@H](C(=O)N[C@@H](CC(N)=O)C(=O)N[C@@H](Cc1c[nH]c2ccccc12)C(=O)N[C@@H](CC(C)C)C(=O)N[C@@H](CC(C)C)C(=O)N[C@@H](C)C(=O)NCC(=O)NCC(=O)N1CCC[C@H]1C(=O)N[C@@H](CO)C(=O)N[C@@H](CO)C(=O)NCC(=O)N[C@@H](C)C(=O)N1CCC[C@H]1C(=O)N1CCC[C@H]1C(=O)N1CCC[C@H]1C(=O)N[C@@H](CO)C(=O)N[C@@H](CCCCN)C(N)=O)C(C)C [Compound 156] | 1 to 10 | 1 to 10 | 95 to 100 | 95 to 100 | < 0.1 | < 0.1 | 116 to 118 | 116 to 118 | > 1000 |  |  |  |  |  |  |  |  |  |
| CC[C@H](C)[C@H](NC(=O)[C@H](CO)NC(=O)[C@H](Cc1ccc(O)cc1)NC(=O)[C@H](CC(=O)O)NC(=O)[C@H](CO)NC(=O)[C@@H](NC(=O)[C@H](Cc1ccccc1)NC(=O)[C@@H](NC(=O)CNC(=O)[C@H](CCC(=O)O)NC(=O)CSCC(=O)NCCN1C(=O)c2ccncc2C1=O)[C@@H](C)O)[C@@H](C)O)C(=O)N[C@@H](Cc1ccc(O)cc1)C(=O)N[C@@H](CC(C)C)C(=O)N[C@@H](CC(=O)O)C(=O)N[C@@H](CCCCN)C(=O)N[C@@H](CCC(N)=O)C(=O)N[C@@H](C)C(=O)N[C@@H](C)C(=O)NC(C)(C)C(=O)N[C@@H](CCC(=O)O)C(=O)N[C@@H](Cc1ccccc1)C(=O)N[C@H](C(=O)N[C@@H](CC(N)=O)C(=O)N[C@@H](Cc1c[nH]c2ccccc12)C(=O)N[C@@H](CC(C)C)C(=O)N[C@@H](CC(C)C)C(=O)N[C@@H](C)C(=O)NCC(=O)NCC(=O)N1CCC[C@H]1C(=O)N[C@@H](CO)C(=O)N[C@@H](CO)C(=O)NCC(=O)N[C@@H](C)C(=O)N1CCC[C@H]1C(=O)N1CCC[C@H]1C(=O)N1CCC[C@H]1C(=O)N[C@@H](CO)C(=O)N[C@@H](CCCCN)C(N)=O)C(C)C [Compound 157] |  |  | 93 to 95 | 93 to 95 |  |  | 103 to 105 | 103 to 105 | > 1000 | 1 to 100 | 1 to 100 | 0.1 to 10 | 0.1 to 10 |  |  |  |  |  |
| CC[C@H](C)[C@H](NC(=O)[C@H](CO)NC(=O)[C@H](Cc1ccc(O)cc1)NC(=O)[C@H](CC(=O)O)NC(=O)[C@H](CO)NC(=O)[C@@H](NC(=O)[C@H](Cc1ccccc1)NC(=O)[C@@H](NC(=O)CNC(=O)[C@H](CCC(=O)O)NC(=O)CSCC(=O)NCCN1C(=O)c2cccc3cccc(c23)C1=O)[C@@H](C)O)[C@@H](C)O)C(=O)N[C@@H](Cc1ccc(O)cc1)C(=O)N[C@@H](CC(C)C)C(=O)N[C@@H](CC(=O)O)C(=O)N[C@@H](CCCCN)C(=O)N[C@@H](CCC(N)=O)C(=O)N[C@@H](C)C(=O)N[C@@H](C)C(=O)NC(C)(C)C(=O)N[C@@H](CCC(=O)O)C(=O)N[C@@H](Cc1ccccc1)C(=O)N[C@H](C(=O)N[C@@H](CC(N)=O)C(=O)N[C@@H](Cc1c[nH]c2ccccc12)C(=O)N[C@@H](CC(C)C)C(=O)N[C@@H](CC(C)C)C(=O)N[C@@H](C)C(=O)NCC(=O)NCC(=O)N1CCC[C@H]1C(=O)N[C@@H](CO)C(=O)N[C@@H](CO)C(=O)NCC(=O)N[C@@H](C)C(=O)N1CCC[C@H]1C(=O)N1CCC[C@H]1C(=O)N1CCC[C@H]1C(=O)N[C@@H](CO)C(=O)N[C@@H](CCCCN)C(N)=O)C(C)C [Compound 158] |  |  | 31 to 38 | 31 to 38 |  |  | 104 to 107 | 104 to 107 |  |  |  |  |  | 10 to 100 | 10 to 100 | 0.1 to 1 | 0.1 to 1 | > 1000 |
| CC[C@H](C)[C@H](NC(=O)[C@H](CO)NC(=O)[C@H](Cc1ccc(O)cc1)NC(=O)[C@H](CC(=O)O)NC(=O)[C@H](CO)NC(=O)[C@@H](NC(=O)[C@H](Cc1ccccc1)NC(=O)[C@@H](NC(=O)CNC(=O)[C@H](CCC(=O)O)NC(=O)CSCC(=O)NCCN1C(=O)[C@H]2CCCC[C@H]2C1=O)[C@@H](C)O)[C@@H](C)O)C(=O)N[C@@H](Cc1ccc(O)cc1)C(=O)N[C@@H](CC(C)C)C(=O)N[C@@H](CC(=O)O)C(=O)N[C@@H](CCCCN)C(=O)N[C@@H](CCC(N)=O)C(=O)N[C@@H](C)C(=O)N[C@@H](C)C(=O)NC(C)(C)C(=O)N[C@@H](CCC(=O)O)C(=O)N[C@@H](Cc1ccccc1)C(=O)N[C@H](C(=O)N[C@@H](CC(N)=O)C(=O)N[C@@H](Cc1c[nH]c2ccccc12)C(=O)N[C@@H](CC(C)C)C(=O)N[C@@H](CC(C)C)C(=O)N[C@@H](C)C(=O)NCC(=O)NCC(=O)N1CCC[C@H]1C(=O)N[C@@H](CO)C(=O)N[C@@H](CO)C(=O)NCC(=O)N[C@@H](C)C(=O)N1CCC[C@H]1C(=O)N1CCC[C@H]1C(=O)N1CCC[C@H]1C(=O)N[C@@H](CO)C(=O)N[C@@H](CCCCN)C(N)=O)C(C)C [Compound 159] | 10 to 100 | 10 to 100 | 87 to 91 | 87 to 91 | 1 to 10 | 1 to 10 | 89 to 92 | 89 to 92 | > 1000 |  |  |  |  |  |  |  |  |  |
| CC[C@H](C)[C@H](NC(=O)[C@H](CO)NC(=O)[C@H](Cc1ccc(O)cc1)NC(=O)[C@H](CC(=O)O)NC(=O)[C@H](CO)NC(=O)[C@@H](NC(=O)[C@H](Cc1ccccc1)NC(=O)[C@@H](NC(=O)CNC(=O)[C@H](CCC(=O)O)NC(=O)CSCC(=O)NCCN1C(=O)c2cccnc2C1=O)[C@@H](C)O)[C@@H](C)O)C(=O)N[C@@H](Cc1ccc(O)cc1)C(=O)N[C@@H](CC(C)C)C(=O)N[C@@H](CC(=O)O)C(=O)N[C@@H](CCCCN)C(=O)N[C@@H](CCC(N)=O)C(=O)N[C@@H](C)C(=O)N[C@@H](C)C(=O)NC(C)(C)C(=O)N[C@@H](CCC(=O)O)C(=O)N[C@@H](Cc1ccccc1)C(=O)N[C@H](C(=O)N[C@@H](CC(N)=O)C(=O)N[C@@H](Cc1c[nH]c2ccccc12)C(=O)N[C@@H](CC(C)C)C(=O)N[C@@H](CC(C)C)C(=O)N[C@@H](C)C(=O)NCC(=O)NCC(=O)N1CCC[C@H]1C(=O)N[C@@H](CO)C(=O)N[C@@H](CO)C(=O)NCC(=O)N[C@@H](C)C(=O)N1CCC[C@H]1C(=O)N1CCC[C@H]1C(=O)N1CCC[C@H]1C(=O)N[C@@H](CO)C(=O)N[C@@H](CCCCN)C(N)=O)C(C)C [Compound 160] | 1 to 10 | 1 to 10 | 85 to 95 | 85 to 95 | 0.1 to 1 | 0.1 to 1 | 109 to 113 | 109 to 113 | > 1000 |  |  |  |  |  |  |  |  |  |

Source: US20260176320A1, “MODULATORS OF G-PROTEIN COUPLED RECEPTORS” (priority 2018, published 2026)
